Results reported in US20060069132A1, “Azolecarboxamide herbicides” (priority 2004, published 2006).

Experiments:
barnyardgrass [1] = test: Test A pre-/postemergence herbicide test; type: in vivo, Echinochloa crus-galli
How it was run: (§1)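 Pre: seeded sandy loam, directed soil spray, compound in non-phytotoxic solvent + surfactant. Post: 1–2-leaf plants (2–10 cm), sprayed to runoff. Greenhouse ~10 d; visual injury vs untreated, 0–100 scale.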

large crabgrass [2] = test: Test A pre-/postemergence herbicide test; type: in vivo, Digitaria sanguinalis
How it was run: as §1

giant foxtail [3] = test: Test A pre-/postemergence herbicide test; type: in vivo, Setaria faberi
How it was run: as §1

morningglory [4] = test: Test A pre-/postemergence herbicide test; type: in vivo, Ipomoea spp.
How it was run: as §1

redroot pigweed = test: Test A pre-/postemergence herbicide test; type: in vivo, Amaranthus retroflexus
How it was run: as §1

velvetleaf [5] = test: Test A pre-/postemergence herbicide test; type: in vivo, Abutilon theophrasti
How it was run: as §1

barnyardgrass [6] = test: Test B pre-/postemergence herbicide test; type: in vivo, Echinochloa crus-galli
How it was run: (§2)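 Evaluation is visual, comparing treated with control plants on a scale where 0 means no effect and 100 means full control. Treatments were preemergence, or postemergence on seedlings 2–18 cm tall, and held 13–15 days in the greenhouse.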

Surinam grass = test: Test B pre-/postemergence herbicide test; type: in vivo, Urochloa decumbens
How it was run: (§3)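 Herbicidal effect was judged by eye on a 0–100 scale after plants stood 13 to 15 days in the greenhouse following pre- or postemergence treatment with surfactant-containing formulations.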

cocklebur = test: Test B pre-/postemergence herbicide test; type: in vivo, Xanthium strumarium
How it was run: as §2

corn = test: Test B pre-/postemergence herbicide test; type: in vivo, Zea mays
How it was run: as §3

large crabgrass [7] = test: Test B pre-/postemergence herbicide test; type: in vivo, Digitaria sanguinalis
How it was run: as §3

giant foxtail [8] = test: Test B pre-/postemergence herbicide test; type: in vivo, Setaria faberi
How it was run: as §3

lambsquarters = test: Test B pre-/postemergence herbicide test; type: in vivo, Chenopodium album
How it was run: as §3

morningglory [9] = test: Test B pre-/postemergence herbicide test; type: in vivo, Ipomoea coccinea
How it was run: as §2

pigweed = test: Test B pre-/postemergence herbicide test; type: in vivo, Amaranthus retroflexus
How it was run: as §3

velvetleaf [10] = test: Test B pre-/postemergence herbicide test; type: in vivo, Abutilon theophrasti
How it was run: as §3

blackgrass = test: Test B postemergence herbicide test; type: in vivo, Alopecurus myosuroides
How it was run: (§4)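 Each value is a visual 0–100 response rating taken against controls 13 to 15 days after treatment in the greenhouse. Plants received formulated chemical postemergence at the 1- to 4-leaf stage or, in flooded paddy, at the 2-leaf stage.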

wheat = test: Test B postemergence herbicide test; type: in vivo, Triticum aestivum; set-up: key to Wheat plant response rating: 0 = no effect, 100 = complete control
How it was run: (§5)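 Scale 0–100: zero equals no visible effect, 100 complete control, judged by eye relative to controls. Timing: 13 to 15 days in greenhouse post-treatment. Growth stage at spraying: two leaves (paddy) or one to four leaves, 2–18 cm (postemergence).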

wild oat = test: Test B postemergence herbicide test; type: in vivo, Avena fatua
How it was run: as §5

rice = test: Test B flooded paddy test; type: in vivo, Oryza sativa; conditions: 1000 g ai/ha, scale 0 to 100 (0 no effect, 100 complete control)
How it was run: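 Treated at 2-leaf (paddy) or 1–4-leaf, 2–18 cm (postemergence); greenhouse 13–15 d; visual score vs control, 0 none to 100 complete control; dash = not tested.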

[11] = tested on: small flower umbrella sedge; test: Test B flooded paddy test; type: in vivo, Cyperus difformis; conditions: 1000 g ai/ha, scale 0 to 100 (0 no effect, 100 complete control)
How it was run: as §4

ducksalad = test: Test B flooded paddy test; type: in vivo, Heteranthera limosa; conditions: 1000 g ai/ha, scale 0 to 100 (0 no effect, 100 complete control)
How it was run: as §4

barnyardgrass [12] = test: Test B flooded paddy test; type: in vivo, Echinochloa crus-galli; conditions: 1000 g ai/ha, scale 0 to 100 (0 no effect, 100 complete control)
How it was run: as §4

[13] = Postemergence, 500 g ai/ha, 0 to 100 scale, 0 no effect, 100 complete control
[14] = Postemergence, 2000 g ai/ha, 0 to 100 scale, 0 no effect, 100 complete control
[15] = Preemergence, 2000 g ai/ha, visual rating, 0 to 100 scale (0 no effect, 100 complete control)
[16] = preemergence, 500 g ai/ha, visual injury, 0 to 100 scale (0 no effect, 100 complete control)
[17] = 125 g ai/ha; 0 = no effect, 100 = complete control; preemergence
[18] = 500 g ai/ha; visual rating 0-100, 0 no effect, 100 complete control; preemergence
[19] = postemergence, 125 g ai/ha; visual rating, scale 0 (no effect) to 100 (complete control)
[20] = postemergence, 500 g ai/ha; visual rating, scale 0 (no effect) to 100 (complete control)
[21] = Postemergence, 125 g ai/ha, 0 to 100 scale, 0 no effect, 100 complete control
[22] = preemergence, 125 g ai/ha, visual injury, 0 to 100 scale (0 no effect, 100 complete control)
[23] = 125 g ai/ha; visual rating, scale 0 (no effect) to 100 (complete control); postemergence
[24] = 500 g ai/ha; visual rating, 0 = no effect, 100 = complete control; preemergence
[25] = postemergence, 500 g ai/ha; scale 0 to 100, 0 is no effect, 100 is complete control

CC(=O)c1cccc(NC(=O)c2sc(C(C)(C)C)nc2C)c1 [Compound 196]
Barnyardgrass plant response rating (barnyardgrass [1]; [13]): 0
Plant response rating, Barnyardgrass (barnyardgrass [1]; [14]): 30
Barnyardgrass plant response rating (barnyardgrass [1]; [15]): 55
Barnyardgrass plant response rating (barnyardgrass [1]; [16]): 15
Crabgrass, Large plant response rating (large crabgrass [2]; [13]): 0
Plant response rating, Crabgrass, Large (large crabgrass [2]; [14]): 0
Crabgrass, Large plant response rating (large crabgrass [2]; [15]): 50
Crabgrass, Large plant response rating (large crabgrass [2]; [16]): 25
Foxtail, Giant plant response rating (giant foxtail [3]; [13]): 0
Plant response rating, Foxtail, Giant (giant foxtail [3]; [14]): 0
Foxtail, Giant plant response rating (giant foxtail [3]; [15]): 20
Foxtail, Giant plant response rating (giant foxtail [3]; [16]): 0
Morningglory plant response rating (morningglory [4]; [13]): 5
Plant response rating, Morningglory (morningglory [4]; [14]): 0
Morningglory plant response rating (morningglory [4]; [15]): 10
Morningglory plant response rating (morningglory [4]; [16]): 0
Pigweed plant response rating (redroot pigweed; [13]): 0
Plant response rating, Pigweed (redroot pigweed; [14]): 0
Pigweed plant response rating (redroot pigweed; [15]): 15
Pigweed plant response rating (redroot pigweed; [16]): 0
Velvetleaf plant response rating (velvetleaf [5]; [13]): 0
Plant response rating, Velvetleaf (velvetleaf [5]; [14]): 0
Velvetleaf plant response rating (velvetleaf [5]; [15]): 0
Velvetleaf plant response rating (velvetleaf [5]; [16]): 0
Barnyardgrass plant response rating (0 to 100 scale) (barnyardgrass [6]; [17]): 0
Plant response rating, Barnyardgrass (barnyardgrass [6]; [18]): 40
Barnyardgrass plant response rating (barnyardgrass [6]; [19]): 0
Barnyardgrass plant response rating (barnyardgrass [6]; [20]): 30
Surinam Grass plant response rating (0 to 100 scale) (Surinam grass; [17]): 0
Plant response rating, Surinam Grass (Surinam grass; [18]): 0
Surinam Grass plant response rating (Surinam grass; [19]): 0
Surinam Grass plant response rating (Surinam grass; [20]): 40
Cocklebur plant response rating (0 to 100 scale) (cocklebur; [17]): 0
Plant response rating, Cocklebur (cocklebur; [18]): 0
Cocklebur plant response rating (cocklebur; [19]): 0
Cocklebur plant response rating (cocklebur; [20]): 20
Corn plant response rating (0 to 100 scale) (corn; [17]): 0
Plant response rating, Corn (corn; [18]): 0
Corn plant response rating (corn; [19]): 0
Corn plant response rating (corn; [20]): 10
Crabgrass, Large plant response rating (0 to 100 scale) (large crabgrass [7]; [17]): 0
Plant response rating, Crabgrass, Large (large crabgrass [7]; [18]): 100
Crabgrass, Large plant response rating (large crabgrass [7]; [19]): 30
Crabgrass, Large plant response rating (large crabgrass [7]; [20]): 30
Foxtail, Giant plant response rating (0 to 100 scale) (giant foxtail [8]; [17]): 0
Plant response rating, Foxtail, Giant (giant foxtail [8]; [18]): 0
Foxtail, Giant plant response rating (giant foxtail [8]; [19]): 0
Foxtail, Giant plant response rating (giant foxtail [8]; [20]): 0
Lambsquarters plant response rating (0 to 100 scale) (lambsquarters; [17]): 0
Plant response rating, Lambsquarters (lambsquarters; [18]): 0
Lambsquarters plant response rating (lambsquarters; [19]): 0
Lambsquarters plant response rating (lambsquarters; [20]): 30
Morningglory plant response rating (0 to 100 scale) (morningglory [9]; [17]): 0
Plant response rating, Morningglory (morningglory [9]; [18]): 0
Morningglory plant response rating (morningglory [9]; [19]): 0
Morningglory plant response rating (morningglory [9]; [20]): 0
Pigweed plant response rating (0 to 100 scale) (pigweed; [17]): 0
Plant response rating, Pigweed (pigweed; [18]): 0
Pigweed plant response rating (pigweed; [19]): 10
Pigweed plant response rating (pigweed; [20]): 30
Velvetleaf plant response rating (0 to 100 scale) (velvetleaf [10]; [17]): 0
Plant response rating, Velvetleaf (velvetleaf [10]; [18]): 20
Velvetleaf plant response rating (velvetleaf [10]; [19]): 0
Velvetleaf plant response rating (velvetleaf [10]; [20]): 0
Blackgrass plant response rating (blackgrass; [19]): 0
Blackgrass plant response rating (blackgrass; [20]): 0
Wheat plant response rating (wheat; [19]): 0
Wheat plant response rating (wheat; [20]): 0
Oat, Wild plant response rating (wild oat; [19]): 0
Oat, Wild plant response rating (wild oat; [20]): 0
Rice plant response rating (rice; visual rating, 13 to 15 days): 0
Sedge, Umbrella plant response rating ([11]; visual rating, 13 to 15 days): 30
Ducksalad plant response rating (ducksalad; visual rating, 13 to 15 days): 30
Barnyardgrass plant response rating (barnyardgrass [12]; visual rating, 13 to 15 days): 20

CC(=NO)c1cccc(NC(=O)c2cc(C(C)(C)C)n[nH]2)c1 [Compound 311]
Barnyardgrass plant response rating (barnyardgrass [1]; [21]): 0
Barnyardgrass plant response rating (barnyardgrass [1]; [13]): 10
Barnyardgrass plant response rating (barnyardgrass [1]; [22]): 0
Barnyardgrass plant response rating (barnyardgrass [1]; [16]): 0
Crabgrass, Large plant response rating (large crabgrass [2]; [21]): 0
Crabgrass, Large plant response rating (large crabgrass [2]; [13]): 10
Crabgrass, Large plant response rating (large crabgrass [2]; [22]): 0
Crabgrass, Large plant response rating (large crabgrass [2]; [16]): 0
Foxtail, Giant plant response rating (giant foxtail [3]; [21]): 0
Foxtail, Giant plant response rating (giant foxtail [3]; [13]): 0
Foxtail, Giant plant response rating (giant foxtail [3]; [22]): 0
Foxtail, Giant plant response rating (giant foxtail [3]; [16]): 0
Morningglory plant response rating (morningglory [4]; [21]): 0
Morningglory plant response rating (morningglory [4]; [13]): 0
Morningglory plant response rating (morningglory [4]; [22]): 0
Morningglory plant response rating (morningglory [4]; [16]): 0
Pigweed plant response rating (redroot pigweed; [21]): 0
Pigweed plant response rating (redroot pigweed; [13]): 0
Pigweed plant response rating (redroot pigweed; [22]): 0
Pigweed plant response rating (redroot pigweed; [16]): 0
Velvetleaf plant response rating (velvetleaf [5]; [21]): 0
Velvetleaf plant response rating (velvetleaf [5]; [13]): 10
Velvetleaf plant response rating (velvetleaf [5]; [22]): 0
Velvetleaf plant response rating (velvetleaf [5]; [16]): 0
Barnyardgrass plant response rating (0 to 100 scale) (barnyardgrass [6]; [17]): 0
Barnyardgrass plant response rating (barnyardgrass [6]; [23]): 0
Plant response rating, Barnyardgrass (barnyardgrass [6]; [24]): 0
Barnyardgrass plant response rating (barnyardgrass [6]; [25]): 0
Surinam Grass plant response rating (0 to 100 scale) (Surinam grass; [17]): 0
Surinam Grass plant response rating (Surinam grass; [23]): 0
Plant response rating, Surinam Grass (Surinam grass; [24]): 0
Surinam Grass plant response rating (Surinam grass; [25]): 0
Cocklebur plant response rating (0 to 100 scale) (cocklebur; [17]): 0
Cocklebur plant response rating (cocklebur; [23]): 0
Plant response rating, Cocklebur (cocklebur; [24]): 0
Cocklebur plant response rating (cocklebur; [25]): 0
Corn plant response rating (0 to 100 scale) (corn; [17]): 0
Corn plant response rating (corn; [23]): 0
Plant response rating, Corn (corn; [24]): 0
Corn plant response rating (corn; [25]): 0
Crabgrass, Large plant response rating (0 to 100 scale) (large crabgrass [7]; [17]): 0
Crabgrass, Large plant response rating (large crabgrass [7]; [23]): 0
Plant response rating, Crabgrass, Large (large crabgrass [7]; [24]): 0
Crabgrass, Large plant response rating (large crabgrass [7]; [25]): 0
Foxtail, Giant plant response rating (0 to 100 scale) (giant foxtail [8]; [17]): 0
Foxtail, Giant plant response rating (giant foxtail [8]; [23]): 0
Plant response rating, Foxtail, Giant (giant foxtail [8]; [24]): 0
Foxtail, Giant plant response rating (giant foxtail [8]; [25]): 0
Lambsquarters plant response rating (0 to 100 scale) (lambsquarters; [17]): 0
Lambsquarters plant response rating (lambsquarters; [23]): 0
Plant response rating, Lambsquarters (lambsquarters; [24]): 0
Lambsquarters plant response rating (lambsquarters; [25]): 0
Morningglory plant response rating (0 to 100 scale) (morningglory [9]; [17]): 0
Morningglory plant response rating (morningglory [9]; [23]): 0
Plant response rating, Morningglory (morningglory [9]; [24]): 0
Morningglory plant response rating (morningglory [9]; [25]): 0
Pigweed plant response rating (0 to 100 scale) (pigweed; [17]): 0
Pigweed plant response rating (pigweed; [23]): 0
Plant response rating, Pigweed (pigweed; [24]): 0
Pigweed plant response rating (pigweed; [25]): 0
Velvetleaf plant response rating (velvetleaf [10]; [23]): 0
Plant response rating, Velvetleaf (velvetleaf [10]; [24]): 0
Velvetleaf plant response rating (velvetleaf [10]; [25]): 0
Blackgrass plant response rating (blackgrass; [23]): 0
Blackgrass plant response rating (blackgrass; [25]): 0
Wheat plant response rating (wheat; [23]): 0
Wheat plant response rating (wheat; [25]): 0
Oat, Wild plant response rating (wild oat; [23]): 0
Oat, Wild plant response rating (wild oat; [25]): 0
Rice plant response rating (rice): 60
Sedge, Umbrella plant response rating [11]: 30
Ducksalad plant response rating (ducksalad): 60
Barnyardgrass plant response rating (barnyardgrass [12]): 50
